From ChEMBL document CHEMBL1144861, “Synthesis and biological activities of novel 4"-alkylidene avermectin derivatives” (2003)
Converted amounts (≈) assume the structure as drawn.

What was measured:
Artemia salina = assay: In vitro inhibitory activity required against Artemia salina; type: functional
Caenorhabditis elegans = assay: In vitro inhibitory activity required against Caenorhabditis elegans.; type: functional

Row | MIC (Caenorhabditis elegans) [µg/mL] | Compound | MIC (Artemia salina) [µg/mL]
1 | 0.01 (≈ 0.0259 µM) | CO[C@H]1C[C@H](O[Si](C)(C)C(C)(C)C)O[C@@H](C)/C1=C/C(=O)N1CCOCC1 | 0.01 (≈ 0.0259 µM)
2 | 0.002 (≈ 0.00672 µM) | CO[C@H]1C[C@H](O[Si](C)(C)C(C)(C)C)O[C@@H](C)/C1=C\C#N | 0.002 (≈ 0.00672 µM)
3 | 0.01 (≈ 0.0331 µM) | CO[C@H]1C[C@H](O[Si](C)(C)C(C)(C)C)O[C@@H](C)/C1=C/CO | 0.01 (≈ 0.0331 µM)
4 | 0.01 (≈ 0.0303 µM) | CO/N=C/C=C1\[C@H](C)O[C@@H](O[Si](C)(C)C(C)(C)C)C[C@@H]1OC | 0.01 (≈ 0.0303 µM)
5 | 0.05 (≈ 0.123 µM) | CO[C@H]1C[C@H](O[Si](C)(C)C(C)(C)C)O[C@@H](C)/C1=C\COC(=O)c1ccncc1 | 0.01 (≈ 0.0245 µM)
6 | 0.05 (≈ 0.135 µM) | CO[C@H]1C[C@H](O[Si](C)(C)C(C)(C)C)O[C@@H](C)/C1=C/CN1CCCCC1 | 0.01 (≈ 0.0271 µM)
7 | 0.01 (≈ 0.0316 µM) | CO[C@H]1C[C@H](O[Si](C)(C)C(C)(C)C)O[C@@H](C)/C1=C/C(=O)O | 0.002 (≈ 0.00632 µM)
8 | 0.01 (≈ 0.0261 µM) | CO[C@H]1C[C@H](O[Si](C)(C)C(C)(C)C)O[C@@H](C)/C1=C/C(=O)N1CCCCC1 | 0.002 (≈ 0.00521 µM)
9 | 0.01 (≈ 0.029 µM) | CCOC(=O)/C=C1/[C@H](C)O[C@@H](O[Si](C)(C)C(C)(C)C)C[C@@H]1OC | 0.01 (≈ 0.029 µM)
10 | 0.01 (≈ 0.0269 µM) | CO[C@H]1C[C@H](O[Si](C)(C)C(C)(C)C)O[C@@H](C)/C1=C/CN1CCOCC1 | 0.01 (≈ 0.0269 µM)
11 | 0.01 (≈ 0.0316 µM) | CO[C@H]1C[C@H](O[Si](C)(C)C(C)(C)C)O[C@@H](C)/C1=C\C(=O)O | 0.002 (≈ 0.00632 µM)
12 | 0.01 (≈ 0.026 µM) | CO[C@H]1C[C@H](O[Si](C)(C)C(C)(C)C)O[C@@H](C)/C1=C/C(=O)N1CCNCC1 | 0.002 (≈ 0.0052 µM)
13 | 0.01 (≈ 0.028 µM) | C=CCOC(=O)/C=C1/[C@H](C)O[C@@H](O[Si](C)(C)C(C)(C)C)C[C@@H]1OC | 0.002 (≈ 0.00561 µM)
14 | 0.01 (≈ 0.0245 µM) | CO[C@H]1C[C@H](O[Si](C)(C)C(C)(C)C)O[C@@H](C)/C1=C\COC(=O)c1cccnc1 | 0.002 (≈ 0.00491 µM)
15 | 0.002 | IVERMECTIN | 0.002
16 | 0.01 (≈ 0.0333 µM) | CO[C@H]1C[C@H](O[Si](C)(C)C(C)(C)C)O[C@@H](C)/C1=C/C=O | 0.01 (≈ 0.0333 µM)
17 | 0.01 (≈ 0.0312 µM) | CO[C@H]1C[C@H](O[Si](C)(C)C(C)(C)C)O[C@@H](C)/C1=C/CCl | 0.01 (≈ 0.0312 µM)
18 | 0.01 (≈ 0.0317 µM) | CO[C@H]1C[C@H](O[Si](C)(C)C(C)(C)C)O[C@@H](C)/C1=C\C=N\O | 0.002 (≈ 0.00634 µM)
19 | 0.0005 (≈ 0.00168 µM) | CO[C@H]1C[C@H](O[Si](C)(C)C(C)(C)C)O[C@@H](C)/C1=C/C#N | 0.0005 (≈ 0.00168 µM)
20 | 0.01 (≈ 0.027 µM) | CO[C@H]1C[C@H](O[Si](C)(C)C(C)(C)C)O[C@@H](C)/C1=C/CN1CCNCC1 | 0.002 (≈ 0.0054 µM)

Row | Compound | MIC (Caenorhabditis elegans) [µg/mL] | MIC (Artemia salina) [µg/mL]
21 | CC[C@H](C)[C@H]1O[C@]2(C=C[C@@H]1C)C[C@@H]1C[C@@H](C/C=C(\C)[C@@H](O[C@H]3C[C@H](OC)[C@@H](O[C@H]4C[C@H](OC)[C@@H](O)[C@H](C)O4)[C@H](C)O3)[C@@H](C)/C=C/C=C3\CO[C@@H]4[C@H](O)C(C)=C[C@@H](C(=O)O1)[C@]34O)O2 [ABAMECTIN COMPONENT B1A] | 0.002 (≈ 0.00229 µM) | 0.0005 (≈ 0.000573 µM)
